pIC50: −log10 of the molar value. Where a SMILES comes first, the peptide text is derived from it.
The compounds below were run against T1, Solute carrier family 15 member 1 (Homo sapiens, UniProt P46059) (assay: TP_TRANSPORTER: inhibition of Gly-Sar uptake (Gly-Sar: 25000 uM) in PEPT1-expressing CHO cells).
T1 sequence (P46059 whole entry): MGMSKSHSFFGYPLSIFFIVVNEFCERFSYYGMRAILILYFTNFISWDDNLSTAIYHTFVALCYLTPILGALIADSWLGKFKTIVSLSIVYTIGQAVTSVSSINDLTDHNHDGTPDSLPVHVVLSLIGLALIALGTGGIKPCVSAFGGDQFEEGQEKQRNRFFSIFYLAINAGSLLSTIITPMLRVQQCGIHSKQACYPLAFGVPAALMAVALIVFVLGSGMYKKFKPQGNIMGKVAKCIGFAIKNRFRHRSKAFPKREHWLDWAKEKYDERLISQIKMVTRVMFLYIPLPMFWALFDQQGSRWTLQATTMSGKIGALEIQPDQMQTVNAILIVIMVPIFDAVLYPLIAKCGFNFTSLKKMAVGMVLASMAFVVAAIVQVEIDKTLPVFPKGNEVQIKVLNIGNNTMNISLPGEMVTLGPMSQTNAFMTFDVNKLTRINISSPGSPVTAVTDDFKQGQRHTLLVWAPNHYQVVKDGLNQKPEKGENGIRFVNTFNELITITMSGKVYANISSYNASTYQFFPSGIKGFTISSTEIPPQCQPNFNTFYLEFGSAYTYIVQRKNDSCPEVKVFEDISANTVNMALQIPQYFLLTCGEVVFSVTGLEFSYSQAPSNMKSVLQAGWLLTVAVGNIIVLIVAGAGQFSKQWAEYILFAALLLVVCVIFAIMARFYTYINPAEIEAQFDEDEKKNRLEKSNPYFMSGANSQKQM
Assay type: functional, cell-based

`NCC(=O)NCC(=O)NCC(=O)O` was tested. Which pIC50 did it give?
The pIC50 was 2.85.

How did the pIC50 turn out when `C[C@H](N)C(=O)N[C@@H](C)C(=O)O` (H-Ala-Ala-OH) was run?
The pIC50 was 4.20.

How did the pIC50 turn out when `CC1(C)S[C@@H]2[C@H](NC(=O)[C@H](N)c3ccccc3)C(=O)N2[C@H]1C(=O)O` [AMPICILLIN] was run?
Its pIC50 is 2.00.
